According to US20250243180A1, “TARGETED PROTEIN DEGRADATION” (Monte Rosa Therapeutics AG, priority 2023, published 2025):
Read-outs that look alike come from different tables or passages of the source.

How the values were obtained:
[1] = molecular target: CRBN-DDB1 (Homo sapiens (Human), UniProt Q96SW2); assay: Compound binding to CRBN by HTRF assay
Description: Compound activity was monitored in a Homogenous Time-Resolved Fluorescence (HTRF) assay using 1-[5-({2-[2-(2-{[2-(2,6-dioxopiperidin-3-yl)-1,3-dioxo-2,3-dihydro-1H-isoindol-4-yl]oxy}acetamido)ethoxy]ethyl}carbamoyl)pentyl]-3,3-dimethyl-2-[(1E,3E)-5-[(2E)-1,3,3-trimethyl-5-sulfo-2,3-dihydro-1H-indol-2-ylidene]penta-1,3-dien-1-yl]-3H-indol-1-ium-5-sulfonate as a fluorescent probe. Biochemical assays were conducted in Greiner white 384 well HiBase plates (Cat. No 784075-25) in 20 μL total volume. A one pot detection solution of CRBN-DDB1 (2.5 nM), Anti-His Terbium Cryptate Gold (1×, PerkinElmer Cat. #: 61HI2TLB), and Cy5-Thalidomide (100 nM, Tenova Cat.: T52461) was prepared in 20 mM HEPES, 20 mM NaCl, 0.2 mM TCEP, 0.2 mM EDTA, and 0.005% Tween20 was dispensed to each assay plate. Compounds were stored in dry, ambient temperatures at 10 mM. An 11-point, 1:3 dilution series was prepared from 10 mM stock concentrations in Echo-compatible LDV plates. 10 nL of each compound dilution series was dispensed into assays wells using an Echo 650 (Labcyte Inc. USA). 20 nL of 10 mM Lenalidomide was transferred into the active-control wells for the assay and 20 nL of DMSO was transferred into the neutral-control wells. The assay was then allowed to incubate for 30 min at ambient temperature after transferring compound. Plate measurements were taken on a Pherastar FSX (BMG Labtech, Germany) using the HTRF Red filter (Ex. 337 nm, em1: 620 nm, em2: 665 nm) (Flashes: 50, Integration time: 60-400 us, Z-height: 10 mm, Ratio-multiplier: 10,000). The HTRF signal was then subsequently normalized to the neutral and active controls. Analysis and EC50 values were derived using KNIME analytics (KNIME Zurich) transformation and fitting within Collaborative Drug Discovery (Collaborative Drug Discovery USA). Ki was derived from the geometric mean of the EC50 values using the Cheng-Prustoff transformation.

[2] = molecular target: NEK7 (Homo sapiens (Human), UniProt Q8TDX7+Q96SW2); assay: NEK7 NanoBiT degradation assay in Cal51 NEK7 NanoBiT cell line; format: cell-based; conditions: Cal51 NEK7 NanoBiT cells, 24 hours; for Dmax: CAL-51
Chain of NEK7 (Q8TDX7 whole entry): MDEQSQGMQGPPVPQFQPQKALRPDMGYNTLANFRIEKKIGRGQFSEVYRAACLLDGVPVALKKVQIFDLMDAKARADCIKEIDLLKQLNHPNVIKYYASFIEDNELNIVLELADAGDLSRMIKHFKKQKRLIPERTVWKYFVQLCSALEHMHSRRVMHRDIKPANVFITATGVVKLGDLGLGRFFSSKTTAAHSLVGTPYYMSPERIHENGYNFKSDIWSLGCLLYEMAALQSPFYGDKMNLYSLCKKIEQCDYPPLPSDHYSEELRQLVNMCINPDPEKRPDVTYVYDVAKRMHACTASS
Chain of NEK7 (Q96SW2 whole entry): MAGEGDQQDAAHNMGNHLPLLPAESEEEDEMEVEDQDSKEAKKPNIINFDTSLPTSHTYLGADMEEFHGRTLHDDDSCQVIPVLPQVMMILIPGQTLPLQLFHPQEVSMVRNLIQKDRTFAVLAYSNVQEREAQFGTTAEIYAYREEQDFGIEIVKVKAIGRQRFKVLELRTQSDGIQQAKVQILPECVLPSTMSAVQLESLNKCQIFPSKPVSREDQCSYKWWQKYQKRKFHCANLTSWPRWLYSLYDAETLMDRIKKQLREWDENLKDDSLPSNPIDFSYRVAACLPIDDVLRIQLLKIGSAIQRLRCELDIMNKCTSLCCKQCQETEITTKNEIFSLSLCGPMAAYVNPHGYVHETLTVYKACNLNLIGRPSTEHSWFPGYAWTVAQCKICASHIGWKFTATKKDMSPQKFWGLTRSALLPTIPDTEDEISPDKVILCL
Chain of NEK7 (Q16531 2-1140 partner): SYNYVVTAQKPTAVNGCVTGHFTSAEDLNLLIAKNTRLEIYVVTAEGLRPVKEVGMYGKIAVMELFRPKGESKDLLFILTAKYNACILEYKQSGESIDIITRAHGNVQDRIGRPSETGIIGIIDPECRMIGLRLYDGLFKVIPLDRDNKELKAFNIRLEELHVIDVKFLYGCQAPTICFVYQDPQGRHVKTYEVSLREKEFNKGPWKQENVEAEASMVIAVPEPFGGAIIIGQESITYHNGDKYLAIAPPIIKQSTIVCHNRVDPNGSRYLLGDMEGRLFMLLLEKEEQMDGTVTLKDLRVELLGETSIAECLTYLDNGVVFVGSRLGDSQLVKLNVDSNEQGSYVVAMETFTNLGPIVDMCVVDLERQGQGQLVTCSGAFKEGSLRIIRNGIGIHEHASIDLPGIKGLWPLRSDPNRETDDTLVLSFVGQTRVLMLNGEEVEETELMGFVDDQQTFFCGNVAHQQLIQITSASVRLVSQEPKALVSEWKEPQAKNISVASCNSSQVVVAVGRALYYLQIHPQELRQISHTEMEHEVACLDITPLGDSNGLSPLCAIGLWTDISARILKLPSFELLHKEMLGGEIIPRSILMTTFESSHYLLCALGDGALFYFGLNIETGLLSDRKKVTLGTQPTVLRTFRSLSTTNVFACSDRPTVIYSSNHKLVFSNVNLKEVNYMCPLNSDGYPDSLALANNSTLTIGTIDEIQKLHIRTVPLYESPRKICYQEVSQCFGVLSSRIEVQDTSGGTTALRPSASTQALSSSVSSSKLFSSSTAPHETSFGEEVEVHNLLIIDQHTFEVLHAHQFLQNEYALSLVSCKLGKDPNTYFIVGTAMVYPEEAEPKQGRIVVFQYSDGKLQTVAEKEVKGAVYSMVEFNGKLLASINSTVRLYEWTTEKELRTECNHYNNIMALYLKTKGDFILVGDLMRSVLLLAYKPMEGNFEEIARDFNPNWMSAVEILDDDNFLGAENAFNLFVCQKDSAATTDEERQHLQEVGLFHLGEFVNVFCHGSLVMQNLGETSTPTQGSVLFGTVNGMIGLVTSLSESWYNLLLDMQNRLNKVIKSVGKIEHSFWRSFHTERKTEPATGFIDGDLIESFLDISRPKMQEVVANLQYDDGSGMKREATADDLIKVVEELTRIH
Description: Cal51 NEK7 NanoBiT cell line was generated via CRISPR Knock-In of the HiBiT tag in NEK7 gene and stable infection with a lentivirus carrying LgBiT protein. The cell line was generated in house. For the experiment, cells were plated in 384-well white flat bottom plates (Corning, 3570BC) at 2500 cells per well using Multiflo (BioTek/Agilent) and in 25 μl volume in DMEM experimental medium: DMEM (DMEM, high glucose, HEPES, no phenol red (ThermoFisher Scientific, 21063029) supplemented with 10% FBS (Corning, 35-075-CV), 1% Penicillin/Streptomycin ((ThermoFisher Scientific, 15140-122), and 1% Endurazine (Nano-Glo Endurazine Live Cell Substrate (Promega, N2571)). Cells were incubated for 16 hours at 37° C., 5% CO2 before compound addition. For dose response determination, 2.5 nL of a compound at different concentrations (stock compound concentration range: 10 mM to 0.5 μM, final concentration range inside cell plate: 1 μM to 0.05 nM) were dispensed into the plate using an Echo® 650 liquid handling device (Backman Coulter/Labcyte). Cells were incubated at 37° C., 5% CO2 for 24 hours and then signal was read on a Pherastar FSX using “LUM plus” optic module with 4095 gain and measurement interval time 0.2 seconds.
Analysis was performed in Genedata Screener (Genedata, Basel, CH). Luminescence response (R) was calculated by the formula: response=100*(S−N)/(P−N) where S is the signal of the well, N and P the mean negative and positive control values respectively of the same plate. The luminescence response was then fitted in Genedata using a 4-parameter antagonist logistic fit (hill slope unconstrained, EC50>0, top/bottom unconstrained).

[3] = NEK7 degradation, read-out: NanoBiT Dmax
[4] = NEK7 degradation, read-out: NanoBiT DC50

Chain of CRBN-DDB1 (Q96SW2 whole entry): as the sequence (Q96SW2 whole entry) above
Chain of CRBN-DDB1 (Q16531 whole entry partner): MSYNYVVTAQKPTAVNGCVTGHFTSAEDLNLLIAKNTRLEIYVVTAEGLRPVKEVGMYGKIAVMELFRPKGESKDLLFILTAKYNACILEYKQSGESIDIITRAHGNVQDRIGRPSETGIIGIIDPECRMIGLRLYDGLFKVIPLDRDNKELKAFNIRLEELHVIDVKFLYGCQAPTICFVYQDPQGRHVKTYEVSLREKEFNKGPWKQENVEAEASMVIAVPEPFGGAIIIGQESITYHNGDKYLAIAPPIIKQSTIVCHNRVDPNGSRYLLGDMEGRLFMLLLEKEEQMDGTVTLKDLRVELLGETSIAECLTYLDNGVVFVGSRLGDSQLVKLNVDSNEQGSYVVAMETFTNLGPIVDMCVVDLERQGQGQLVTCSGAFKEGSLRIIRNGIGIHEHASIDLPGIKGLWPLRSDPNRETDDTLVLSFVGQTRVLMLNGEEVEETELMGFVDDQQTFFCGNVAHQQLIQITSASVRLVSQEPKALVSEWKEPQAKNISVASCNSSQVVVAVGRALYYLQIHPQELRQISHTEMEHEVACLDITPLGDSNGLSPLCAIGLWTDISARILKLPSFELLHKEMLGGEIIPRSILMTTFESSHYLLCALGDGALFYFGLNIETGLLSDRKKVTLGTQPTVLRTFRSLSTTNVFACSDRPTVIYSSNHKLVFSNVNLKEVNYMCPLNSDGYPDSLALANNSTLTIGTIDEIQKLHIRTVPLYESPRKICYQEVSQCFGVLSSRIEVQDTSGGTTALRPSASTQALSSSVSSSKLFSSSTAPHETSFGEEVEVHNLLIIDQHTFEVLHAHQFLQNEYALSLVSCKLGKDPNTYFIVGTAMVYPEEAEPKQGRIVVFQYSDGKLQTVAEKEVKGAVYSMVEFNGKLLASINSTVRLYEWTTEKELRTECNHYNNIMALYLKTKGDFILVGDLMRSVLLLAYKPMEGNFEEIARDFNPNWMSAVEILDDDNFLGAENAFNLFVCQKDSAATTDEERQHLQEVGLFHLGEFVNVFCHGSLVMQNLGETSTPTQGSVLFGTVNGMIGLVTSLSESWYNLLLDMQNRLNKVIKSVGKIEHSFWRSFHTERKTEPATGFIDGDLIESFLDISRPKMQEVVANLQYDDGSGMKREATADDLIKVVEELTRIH

SMILES	EC50 [1]	EC50 ([1]; HTRF class, Cereblon binding)	Dmax ([2]; read-out: NEK7 NanoBiT Dmax)	Dmax [2, 3]	DC50 ([2]; read-out: NEK7 NanoBiT DC50)	DC50 [2, 4]
CC(C)(C(=O)NCc1cc(Cl)c(C2CCC(=O)NC2=O)c(Cl)c1)c1cccc(F)c1 (stereo not drawn) [Compound 27]	50 nM	≤ 100 nM	96%	> 75%	1 nM	≤ 100 nM
CC(C)(C(=O)NCc1ccc(C2CCC(=O)NC2=O)c(Cl)c1)c1ccc(C#N)cc1 (stereo not drawn) [Compound 28]	470 nM	100 to 1000 nM	91%	> 75%	17 nM	≤ 100 nM
CC(C)(C(=O)NCc1cc(Cl)c(C2CCC(=O)NC2=O)c(Cl)c1)c1ccc(C#N)cc1 (stereo not drawn) [Compound 29]	80 nM	≤ 100 nM	97%	> 75%	0.4 nM	≤ 100 nM
CC(C)(C(=O)NCc1ccc(C2CCC(=O)NC2=O)c(Cl)c1)c1ccc(F)cc1 (stereo not drawn) [Compound 30]	350 nM	100 to 1000 nM	92%	> 75%	12 nM	≤ 100 nM
CC(C)(C(=O)NCc1cc(F)c(C2CCC(=O)NC2=O)c(Cl)c1)c1ccccc1 (stereo not drawn) [Compound 31]	130 nM	100 to 1000 nM	93%	> 75%	6 nM	≤ 100 nM
CC(C)(C(=O)NCc1cc(Cl)c(C2CCC(=O)NC2=O)c(Cl)c1)c1ccc2c(c1)S(=O)(=O)NC2 (stereo not drawn) [Compound 32, N-(3,5-dichloro-4-(2,6-dioxopiperidin-3-yl)benzyl)-2-(1,1-dioxido-2,3-dihydrobenzo[d]isothiazol-6-yl)-2-methylpropanamide]	110 nM	100 to 1000 nM	95%	> 75%	4 nM	≤ 100 nM
CC(C)(C(=O)NCc1cc(Cl)c(C2CCC(=O)NC2=O)c(Cl)c1)c1ccc2ncncc2c1 (stereo not drawn) [Compound 33]	120 nM	100 to 1000 nM	96%	> 75%	2 nM	≤ 100 nM
CC(C)(C(=O)NCc1cc(Cl)c(C2CCC(=O)NC2=O)c(Cl)c1)c1ccc2cnncc2c1 (stereo not drawn) [Compound 35, N-(3,5-dichloro-4-(2,6-dioxopiperidin-3-yl)benzyl)-2-methyl-2-(phthalazin-6-yl)propanamide]	130 nM	100 to 1000 nM	77%	> 75%	19 nM	≤ 100 nM
CC(C)(C(=O)NCc1cc(Cl)c(C2CCC(=O)NC2=O)c(Cl)c1)c1cc(F)c(S(N)(=O)=O)c(F)c1 (stereo not drawn) [Compound 36, N-(3,5-dichloro-4-(2,6-dioxopiperidin-3-yl)benzyl)-2-(3,5-difluoro-4-sulfamoylphenyl)-2-methylpropanamide]	80 nM	≤ 100 nM	95%	> 75%	5 nM	≤ 100 nM
CC1(C(=O)NCc2cc(Cl)c(C3CCC(=O)NC3=O)c(Cl)c2)COc2ccccc2C1 (stereo not drawn) [Compound 38, N-(3,5-dichloro-4-(2,6-dioxopiperidin-3-yl)benzyl)-3-methylchromane-3-carboxamide]	40 nM	≤ 100 nM	90%	> 75%	6 nM	≤ 100 nM
CC(C)(C(=O)NCc1cc(Cl)c(C2CCC(=O)NC2=O)c(Cl)c1)c1ccc(S(N)(=O)=O)c(F)c1 (stereo not drawn) [Compound 39, N-(3,5-dichloro-4-(2,6-dioxopiperidin-3-yl)benzyl)-2-(3-fluoro-4-sulfamoylphenyl)-2-methylpropanamide]	50 nM	≤ 100 nM	97%	> 75%	2 nM	≤ 100 nM
CC(C)(C(=O)NCc1cc(Cl)c(C2CCC(=O)NC2=O)c(Cl)c1)c1ccc2c(c1)CNS2(=O)=O (stereo not drawn) [Compound 40]	100 nM	≤ 100 nM	93%	> 75%	8 nM	≤ 100 nM
CC(C)(C(=O)NCc1cc(Cl)c(C2CCC(=O)NC2=O)c(Cl)c1)c1ccc2nnccc2c1 (stereo not drawn) [Compound 41]	60 nM	≤ 100 nM	98%	> 75%	0.4 nM	≤ 100 nM
Cc1cc(C(C)(C)C(=O)NCc2cc(Cl)c(C3CCC(=O)NC3=O)c(Cl)c2)cc(=O)[nH]1 (stereo not drawn) [Compound 42, N-(3,5-dichloro-4-(2,6-dioxopiperidin-3-yl)benzyl)-2-methyl-2-(6-methyl-2-oxo-1,2-dihydropyridin-4-yl)propanamide]	180 nM	100 to 1000 nM	93%	> 75%	20 nM	≤ 100 nM
CC(C)(C(=O)NCc1cc(Cl)c(C2CCC(=O)NC2=O)c(Cl)c1)c1ccc(S(N)(=O)=O)cc1F (stereo not drawn) [Compound 43]	40 nM	≤ 100 nM	97%	> 75%	1 nM	≤ 100 nM
CC(C)(C(=O)NCc1cc(Cl)c(C2CCC(=O)NC2=O)c(Cl)c1)c1ccn2cnnc2c1 (stereo not drawn) [Compound 44]	230 nM	100 to 1000 nM	88%	> 75%	38 nM	≤ 100 nM
CCn1ccc(C(C)(C)C(=O)NCc2cc(Cl)c(C3CCC(=O)NC3=O)c(Cl)c2)cc1=O (stereo not drawn) [Compound 45]	530 nM	100 to 1000 nM	91%	> 75%	13 nM	≤ 100 nM
COc1nccc(C(C)(C)C(=O)NCc2cc(Cl)c(C3CCC(=O)NC3=O)c(Cl)c2)n1 (stereo not drawn) [Compound 46]	50 nM	≤ 100 nM	71%	50 to 75%	61 nM	≤ 100 nM
CC1(C(=O)NCc2cc(Cl)c(C3CCC(=O)NC3=O)c(Cl)c2)COc2ccccc2O1 (stereo not drawn) [Compound 47]	30 nM	≤ 100 nM	85%	> 75%	4 nM	≤ 100 nM
CN1Cc2ccccc2CC1C(=O)NCc1cc(Cl)c(C2CCC(=O)NC2=O)c(Cl)c1 (stereo not drawn) [Compound 48]	130 nM	100 to 1000 nM	66%	50 to 75%	54 nM	≤ 100 nM
CC(C)(C(=O)NCc1cc(Cl)c(C2CCC(=O)NC2=O)c(Cl)c1)c1ccc2nccnc2c1 (stereo not drawn) [Compound 49]	70 nM	≤ 100 nM	99%	> 75%	0.1 nM	≤ 100 nM
CC(C)(C(=O)NCc1cc(Cl)c(C2CCC(=O)NC2=O)c(Cl)c1)c1ccc(NS(C)(=O)=O)cc1 (stereo not drawn) [Compound 50]	150 nM	100 to 1000 nM	88%	> 75%	18 nM	≤ 100 nM
CC(C)(C(=O)NCc1cc(Cl)c(C2CCC(=O)NC2=O)c(Cl)c1)c1ccc(C(N)=O)cc1F (stereo not drawn) [Compound 51]	70 nM	≤ 100 nM	96%	> 75%	1 nM	≤ 100 nM
CC(C)(C(=O)NCc1cc(Cl)c(C2CCC(=O)NC2=O)c(Cl)c1)c1cnc2ncsc2c1 (stereo not drawn) [Compound 52]	90 nM	≤ 100 nM	67%	50 to 75%	59 nM	≤ 100 nM
